Experimental findings from PubChem BioAssay AID210 (DTP/NCI, 2004) are described below.

Molecules are shown by their SMILES. “And” between values parts separate entries of the source, which are not always exact repeats. Identical values can stand only once. Inconclusive results and toxic doses are left out.

The experiment has as its system CD2F1 mice, ip Colon 26 adenocarcinoma, median survival T/C. The experiment can be described thus: NCI In Vivo Anticancer Drug Screen. Data for tumor model Colon 26 Adenocarcinoma (intraperitoneal) in CD2F1 (CDF1) mice. To be noted: endpoint: median survival time, higher = longer survival. The procedure:
The antitumor activity of compounds was measured in mice bearing transplantable tumors. Survival or tumor size were measured and the results are expressed as the measurement made in the treated group (T) divided by the measurement made in the vehicle treated control group (C). The tumor model used in this assay is Colon 26 Adenocarcinoma (intraperitoneal) in CD2F1 (CDF1) mice

Turning to `O=C1c2ccccc2C(=O)c2c(NCCNCCO)ccc(NCCNCCO)c21`, the T/C was 191 % of control (dose: 2.0 mg/kg/injection, schedule: Q01DX009 (ip), vehicle: saline); 200 % of control and 223 % of control (dose: 2.5 mg/kg/injection, schedule: Q01DX009 (ip), vehicle: saline); 172 % of control (dose: 2.62 mg/kg/injection, schedule: Q01DX009 (ip), vehicle: saline); 209 % of control (dose: 3.89 mg/kg/injection, schedule: Q01DX009 (ip), vehicle: saline); 104 % of control (dose: 3.89 mg/kg/injection, schedule: Q01DX009 (sc), vehicle: saline); 182 % of control (dose: 4.0 mg/kg/injection, schedule: Q01DX009 (ip), vehicle: acid diluted with saline). In addition, the T/C (dose: 4.0 mg/kg/injection, schedule: Q01DX009 (ip), vehicle: saline) is 226 % of control; the T/C (dose: 5.0 mg/kg/injection, schedule: Q01DX009 (ip), vehicle: saline) is 193 % of control and 223 % of control; the T/C (dose: 5.25 mg/kg/injection, schedule: Q01DX009 (ip), vehicle: saline) was 213 % of control; the T/C (dose: 6.22 mg/kg/injection, schedule: Q04DX003 (iv), vehicle: saline) is 110 % of control; the T/C (dose: 6.48 mg/kg/injection, schedule: Q01DX009 (ip), vehicle: saline) is 209 % of control; the T/C (dose: 6.48 mg/kg/injection, schedule: Q01DX009 (sc), vehicle: saline) is 104 % of control. The T/C runs as follows: (dose: 7.78 mg/kg/injection, schedule: Q01DX001 (iv), vehicle: saline) 104 % of control; (dose: 8.0 mg/kg/injection, schedule: Q01DX009 (ip), vehicle: acid diluted with saline) 219 % of control; (dose: 8.0 mg/kg/injection, schedule: Q01DX009 (ip), vehicle: saline) 236 % of control; (dose: 8.0 mg/kg/injection, schedule: Q04DX003 (ip), vehicle: Klucel (hydroxypropylcellulose) (HPC)) 168 % of control; (dose: 8.0 mg/kg/injection, schedule: Q04DX003 (ip), vehicle: water) 121 % of control and 209 % of control; (dose: 10.0 mg/kg/injection, schedule: Q01DX009 (ip), vehicle: saline) 212 % of control and 267 % of control. The T/C reads like this: (dose: 10.4 mg/kg/injection, schedule: Q04DX003 (iv), vehicle: saline) 106 % of control; (dose: 10.5 mg/kg/injection, schedule: Q01DX009 (ip), vehicle: saline) 294 % of control; (dose: 10.8 mg/kg/injection, schedule: Q01DX009 (ip), vehicle: saline) 182 % of control; (dose: 10.8 mg/kg/injection, schedule: Q01DX009 (sc), vehicle: saline) 105 % of control; (dose: 13.0 mg/kg/injection, schedule: Q01DX001 (iv), vehicle: saline) 116 % of control; (dose: 16.0 mg/kg/injection, schedule: Q01DX009 (ip), vehicle: acid diluted with saline) 219 % of control. Also, the T/C is, setting by setting: (dose: 16.0 mg/kg/injection, schedule: Q01DX009 (ip), vehicle: saline) 305 % of control; (dose: 16.0 mg/kg/injection, schedule: Q04DX003 (ip), vehicle: Klucel (hydroxypropylcellulose) (HPC)) 200 % of control and 170 % of control and 220 % of control; (dose: 16.0 mg/kg/injection, schedule: Q04DX003 (ip), vehicle: water) 188 % of control and 287 % of control; (dose: 17.3 mg/kg/injection, schedule: Q04DX003 (ip), vehicle: saline) 189 % of control; (dose: 17.3 mg/kg/injection, schedule: Q04DX003 (iv), vehicle: saline) 101 % of control; (dose: 18.0 mg/kg/injection, schedule: Q01DX009 (ip), vehicle: saline) 182 % of control. Moreover, the T/C runs as follows: (dose: 18.0 mg/kg/injection, schedule: Q01DX009 (sc), vehicle: saline) 99 % of control; (dose: 20.0 mg/kg/injection, schedule: Q01DX009 (ip), vehicle: saline) 193 % of control; (dose: 21.0 mg/kg/injection, schedule: Q01DX009 (ip), vehicle: saline) 268 % of control; (dose: 21.6 mg/kg/injection, schedule: Q01DX001 (iv), vehicle: saline) 100 % of control; (dose: 25.0 mg/kg/injection, schedule: Q07DX003 (iv), vehicle: Klucel (hydroxypropylcellulose) (HPC)) 104 % of control; (dose: 28.8 mg/kg/injection, schedule: Q04DX003 (ip), vehicle: saline) 150 % of control. For the same compound, the T/C is 101 % of control (dose: 28.8 mg/kg/injection, schedule: Q04DX003 (iv), vehicle: saline); 90 % of control (dose: 30.0 mg/kg/injection, schedule: Q01DX009 (sc), vehicle: saline); 274 % of control (dose: 32.0 mg/kg/injection, schedule: Q01DX009 (ip), vehicle: acid diluted with saline); 162 % of control and 182 % of control (dose: 32.0 mg/kg/injection, schedule: Q04DX003 (ip), vehicle: Klucel (hydroxypropylcellulose) (HPC)); 159 % of control and 287 % of control (dose: 32.0 mg/kg/injection, schedule: Q04DX003 (ip), vehicle: water); 109 % of control (dose: 36.0 mg/kg/injection, schedule: Q01DX001 (iv), vehicle: saline). Further, the T/C reads like this: (dose: 42.0 mg/kg/injection, schedule: Q01DX009 (ip), vehicle: saline) 268 % of control; (dose: 48.0 mg/kg/injection, schedule: Q04DX003 (ip), vehicle: saline) 161 % of control; (dose: 48.0 mg/kg/injection, schedule: Q04DX003 (iv), vehicle: saline) 108 % of control; (dose: 50.0 mg/kg/injection, schedule: Q07DX003 (iv), vehicle: Klucel (hydroxypropylcellulose) (HPC)) 108 % of control; (dose: 60.0 mg/kg/injection, schedule: Q01DX001 (iv), vehicle: saline) 105 % of control; (dose: 64.0 mg/kg/injection, schedule: Q04DX003 (ip), vehicle: Klucel (hydroxypropylcellulose) (HPC)) 163 % of control and 173 % of control. The T/C by setting is: (dose: 64.0 mg/kg/injection, schedule: Q04DX003 (ip), vehicle: water) 177 % of control and 209 % of control; (dose: 80.0 mg/kg/injection, schedule: Q04DX003 (ip), vehicle: saline) 165 % of control.

Consider `C=C(NC(=O)C(=C)NC(=O)c1csc(C2=NC3c4csc(n4)C4NC(=O)c5csc(n5)C(C(C)(O)C(C)O)NC(=O)C5CSC(=N5)/C(=C/C)NC(=O)C(C(C)O)NC(=O)c5csc(n5)C3(CC2)NC(=O)C(C)NC(=O)C(=C)NC(=O)C(C)NC(=O)C(C(C)CC)NC2C=Cc3c(C(C)O)cc(nc3C2O)C(=O)OC4C)n1)C(N)=O` (configuration not stated), for which the T/C runs as follows: (dose: 5.0 mg/kg/injection, schedule: Q04DX003 (ip), vehicle: Klucel (hydroxypropylcellulose) (HPC)) 120 % of control; (dose: 10.0 mg/kg/injection, schedule: Q04DX003 (ip), vehicle: Klucel (hydroxypropylcellulose) (HPC)) 90 % of control; (dose: 20.0 mg/kg/injection, schedule: Q04DX003 (ip), vehicle: Klucel (hydroxypropylcellulose) (HPC)) 100 % of control; (dose: 40.0 mg/kg/injection, schedule: Q04DX003 (ip), vehicle: Klucel (hydroxypropylcellulose) (HPC)) 110 % of control; (dose: 80.0 mg/kg/injection, schedule: Q04DX003 (ip), vehicle: Klucel (hydroxypropylcellulose) (HPC)) 102 % of control; (dose: 160.0 mg/kg/injection, schedule: Q04DX003 (ip), vehicle: Klucel (hydroxypropylcellulose) (HPC)) 92 % of control.

Regarding `CN(C)/N=N/c1nc[nH]c1C(N)=O`, the T/C reads like this: (dose: 25.0 mg/kg/injection, schedule: Q04DX003 (ip), vehicle: carboxymethylcellulose (CMC)) 112 % of control; (dose: 50.0 mg/kg/injection, schedule: Q04DX003 (ip), vehicle: carboxymethylcellulose (CMC)) 120 % of control; (dose: 100.0 mg/kg/injection, schedule: Q04DX003 (ip), vehicle: carboxymethylcellulose (CMC)) 122 % of control; (dose: 240.0 mg/kg/injection, schedule: Q01DX001 (ip), vehicle: Klucel (hydroxypropylcellulose) (HPC)) 95 % of control; (dose: 400.0 mg/kg/injection, schedule: Q01DX001 (ip), vehicle: Klucel (hydroxypropylcellulose) (HPC)) 92 % of control; (dose: 400.0 mg/kg/injection, schedule: Q04DX003 (ip), vehicle: carboxymethylcellulose (CMC)) 116 % of control. In addition, the T/C (dose: 600.0 mg/kg/injection, schedule: Q01DX001 (ip), vehicle: Klucel (hydroxypropylcellulose) (HPC)) is 61 % of control.

For `CCC1(O)CC(OC2CC(N(C)C)C(OC3CC(O)C(OC4CCC(=O)C(C)O4)C(C)O3)C(C)O2)c2c(cc3c(c2O)C(=O)c2c(O)ccc(O)c2C3=O)C1C(=O)OC` (configuration not stated), the T/C reads like this: (dose: 0.38 mg/kg/injection, schedule: Q04DX003 (ip), vehicle: saline with Tween-80) 103 % of control; (dose: 0.75 mg/kg/injection, schedule: Q04DX003 (ip), vehicle: saline with Tween-80) 117 % of control; (dose: 1.5 mg/kg/injection, schedule: Q04DX003 (ip), vehicle: saline with Tween-80) 123 % of control; (dose: 3.0 mg/kg/injection, schedule: Q04DX003 (ip), vehicle: saline with Tween-80) 108 % of control.
